Among the test systems are CAKI-1 renal; HS 578T breast; EKVX NSCLC; UACC-62 melanoma; CCRF-CEM leukemia; HL-60(TB) leukemia; HT29 colon; IGROV1 ovarian; NCI/ADR-RES ovarian; SNB-75 CNS.
Holding throughout (assay): growth of human tumour cells (NCI), 48 h

Where “and” joins values, the source holds several entries; their conditions need not be identical. Equal entries are not always repeated.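 Cells were grown in 96-well plates and exposed to each compound for 48 hours at five concentrations; endpoints were interpolated linearly between bracketing concentrations, or set to the highest concentration if not reached. At the GI50, growth is halved. At the TGI there is no net growth.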

Turning to `O=C1CC(N2C(=O)/C(=C/C(Cl)=C\c3ccc([N+](=O)[O-])cc3)SC2=S)C(=O)N1c1ccc(Cl)cc1` (stereo not given), the GI50 is 1.13 µM in the test with CAKI-1 renal; 1.8 µM in the test with HS 578T breast; 3.11 µM in the test on EKVX NSCLC; 1.77 µM in the test with UACC-62 melanoma; 0.486 µM in the test with CCRF-CEM leukemia; 1.45 µM in the test with HL-60(TB) leukemia. In addition, the GI50 with HT29 colon was 0.632 µM; in the test with IGROV1 ovarian, 1.03 µM; in the test on NCI/ADR-RES ovarian, 1.01 µM. For the same molecule, the TGI in the test on CAKI-1 renal was 3.28 µM; in the test on HS 578T breast, > 100 µM; with EKVX NSCLC, > 100 µM; in the test with UACC-62 melanoma it was 4.3 µM; in the test on CCRF-CEM leukemia, 12.4 µM; in the test on HL-60(TB) leukemia, 8.86 µM. Also, the TGI worked out at 4.6 µM in the test on HT29 colon, 3.26 µM with IGROV1 ovarian and 6.19 µM in the test with NCI/ADR-RES ovarian.

Consider `CCCCC1Cc2cc(OC)ccc2-c2nc3cc(OC)ccc3n21` (stereo not given) (tested in a mixture with another compound), for which the TGI stood at 38.8 µM with CAKI-1 renal; 25.3 µM in the test with HS 578T breast; 25.2 µM with EKVX NSCLC; 25.5 µM in the test on UACC-62 melanoma; 34.1 µM in the test on CCRF-CEM leukemia; 34.9 µM with HL-60(TB) leukemia. Besides, the figures for the TGI in the test with HT29 colon, in the test with IGROV1 ovarian and in the test with NCI/ADR-RES ovarian were 22.5 µM, 23.1 µM and 26.4 µM, respectively.

Take `N=C(N)C(N=Nc1ccccc1)C(=N)N` (stereo not given): the TGI was > 100 µM in the test on CAKI-1 renal; > 100 µM in the test with HS 578T breast; > 100 µM in the test on EKVX NSCLC; > 100 µM in the test on UACC-62 melanoma; 40.6 µM in the test on CCRF-CEM leukemia; 54.2 µM with HL-60(TB) leukemia. Moreover, the TGI in the test with HT29 colon, in the test on IGROV1 ovarian and in the test with NCI/ADR-RES ovarian was > 100 µM each time.

In the case of `O=C(O)C(Cc1ccccc1)N1C(=O)c2ccccc2C1=O` (stereo not given), the TGI in the test with CAKI-1 renal was > 100 µM; in the test on HS 578T breast it was > 100 µM; in the test with EKVX NSCLC, > 100 µM; in the test on UACC-62 melanoma, > 100 µM; with CCRF-CEM leukemia, 65.1 µM; in the test on HL-60(TB) leukemia it was 10.8 µM. Further, the TGI with HT29 colon, in the test with IGROV1 ovarian and in the test with NCI/ADR-RES ovarian was > 100 µM throughout.

For `Cc1cc(C)n(C(=O)C(C)Sc2nnc(SC(C)C(=O)n3nc(C)cc3C)s2)n1` (stereo not given), the TGI in the test on CAKI-1 renal, in the test on HS 578T breast, in the test on EKVX NSCLC, in the test with SNB-75 CNS, with UACC-62 melanoma and with CCRF-CEM leukemia was > 100 µM in each case. The TGI in the test with HL-60(TB) leukemia, in the test with HT29 colon, with IGROV1 ovarian and in the test on NCI/ADR-RES ovarian was > 100 µM throughout.

On to `C=C1C(C2(C)C=CC(=O)OC3(C)COC(=O)CC32)C(OC=O)C(OC(=O)C(O)C(C)CC)C2(C)C(c3ccoc3)CC(OC(C)=O)C12O` (stereo not given), for which the TGI in the test on CAKI-1 renal, in the test on HS 578T breast, in the test on EKVX NSCLC, with SNB-75 CNS, with UACC-62 melanoma and in the test on CCRF-CEM leukemia was > 100 µM in each case. Moreover, the TGI was 9.41 µM with HL-60(TB) leukemia, > 100 µM with HT29 colon, > 100 µM in the test on IGROV1 ovarian and > 100 µM in the test with NCI/ADR-RES ovarian.

For `OC1C=C2C3CN(Cc4cc5c(cc43)OCO5)[C@H]2C[C@@H]1O` (stereo not given in full), the TGI was 29.7 µM with CAKI-1 renal; > 100 µM in the test on HS 578T breast; 28.6 µM with EKVX NSCLC; 4.56 µM in the test on SNB-75 CNS; 68.4 µM in the test on UACC-62 melanoma; 7.04 µM in the test with CCRF-CEM leukemia. Besides, the TGI with HL-60(TB) leukemia is 19.3 µM; in the test on HT29 colon it was 46.3 µM; with IGROV1 ovarian, > 100 µM; in the test on NCI/ADR-RES ovarian it was 75.6 µM.

On to `O=c1c2c([nH]c3nccn13)CCCC2`, for which the TGI with CAKI-1 renal, in the test on HS 578T breast, in the test on EKVX NSCLC, with SNB-75 CNS, with UACC-62 melanoma and with CCRF-CEM leukemia was > 10 µM throughout. The TGI with HL-60(TB) leukemia, with HT29 colon, with IGROV1 ovarian and with NCI/ADR-RES ovarian was > 10 µM in each case.

Consider `COc1ccc(OC)c2sc(N3C(=O)/C(=C/c4ccccc4S)N=C3c3ccccc3)nc12`, for which the TGI with CAKI-1 renal was > 100 µM; in the test with HS 578T breast it was > 100 µM; in the test with EKVX NSCLC, > 100 µM; in the test on SNB-75 CNS, 57.2 µM; in the test on UACC-62 melanoma, 52.2 µM; in the test with CCRF-CEM leukemia it was 42.5 µM. In addition, the TGI was 79.3 µM in the test with HL-60(TB) leukemia, > 100 µM with HT29 colon, > 100 µM in the test on IGROV1 ovarian and > 100 µM in the test on NCI/ADR-RES ovarian.

Take `CCC(C)C(NC(=O)C(CCCCN)NC(=O)C(NC(=O)C(CCC(N)=O)NC(=O)C(CCCNC(=N)N)NC(C)=O)C(C)CC)C(=O)NC(Cc1c[nH]c2ccccc12)C(=O)NC(Cc1ccccc1)C(=O)NC(CCC(N)=O)C(=O)NC(CC(N)=O)C(=O)NC(CCCNC(=N)N)C(=O)NC(CCCNC(=N)N)C(=O)NC(CCSC)C(=O)NC(CCCCN)C(=O)NC(Cc1c[nH]c2ccccc12)C(=O)NC(CCCCN)C(=O)NC(CCCCN)C(N)=O` (stereo not given): the TGI with CAKI-1 renal, with HS 578T breast, in the test on EKVX NSCLC, in the test with UACC-62 melanoma, with CCRF-CEM leukemia and with HL-60(TB) leukemia was > 50 µM each time. Also, the TGI with HT29 colon, in the test with IGROV1 ovarian and with NCI/ADR-RES ovarian was > 50 µM each time.

Regarding `COC1(OC)C[C@H](C)[C@@]23O[C@]24c2cc(O)c5c(c2N[C@H]3C#C/C=C\C#C[C@]14O)C(=O)c1ccccc1C5=O`, the GI50 in the test on CAKI-1 renal was < 0.001 µM; with HS 578T breast, 0.0847 µM; in the test with EKVX NSCLC, 0.0527 µM; with SNB-75 CNS, 0.0028 µM; in the test on UACC-62 melanoma, 0.00204 µM; with CCRF-CEM leukemia, 0.005 µM. Moreover, the GI50 in the test with HL-60(TB) leukemia was < 0.001 µM; with HT29 colon, 0.0226 µM; with NCI/ADR-RES ovarian, 0.00223 µM. Besides, the TGI in the test on CAKI-1 renal was 0.00561 µM and 0.00653 µM; in the test with HS 578T breast, 0.516 µM and 3.6 µM; in the test with EKVX NSCLC it was 0.213 µM and 0.202 µM; with SNB-75 CNS, 0.00927 µM and 0.0318 µM; in the test with UACC-62 melanoma, 0.0359 µM and 0.0324 µM; with CCRF-CEM leukemia it was 0.00572 µM and 0.0539 µM. The TGI in the test with HL-60(TB) leukemia worked out at 0.00105 µM; in the test with IGROV1 ovarian it was 0.16 µM.

`CC(=O)OCCC[C@@H]1C(=C(C)C)CCC2[C@@]1(C)CC[C@@]1(C)C[C@](C)(CCC=C(C)C)CC[C@]21C` (stereo not given in full): the TGI in the test with CAKI-1 renal, in the test on HS 578T breast, in the test on EKVX NSCLC, in the test with SNB-75 CNS, in the test on UACC-62 melanoma and with CCRF-CEM leukemia was > 100 µM each time. For the same molecule, the TGI in the test on HL-60(TB) leukemia, in the test with HT29 colon, in the test with IGROV1 ovarian and in the test with NCI/ADR-RES ovarian was > 100 µM throughout.

For `O=C(NN1C(=O)/C(=C/c2ccc(Cl)cc2)N=C1c1ccccc1)c1c(Cl)c(Cl)c(Cl)c(Cl)c1-c1nc2ccccc2[nH]1`, the TGI is 78.8 µM in the test on CAKI-1 renal; 95.3 µM with HS 578T breast; > 100 µM in the test with EKVX NSCLC; 52.6 µM with SNB-75 CNS; 30.9 µM with UACC-62 melanoma; > 100 µM in the test with CCRF-CEM leukemia. Further, the TGI in the test with HL-60(TB) leukemia is 50.5 µM; with HT29 colon, > 100 µM; in the test on IGROV1 ovarian, > 100 µM; with NCI/ADR-RES ovarian, 42.2 µM.

As for `O=C1OC(c2ccccc2)=N/C1=C/c1cccs1`, the TGI with HS 578T breast was > 100 µM; with EKVX NSCLC, > 100 µM; with SNB-75 CNS, > 100 µM; in the test with CCRF-CEM leukemia, 75.1 µM; in the test on HL-60(TB) leukemia, 44.5 µM; with HT29 colon, > 100 µM. For the same molecule, the values for the TGI in the test on IGROV1 ovarian and with NCI/ADR-RES ovarian were > 100 µM and 83.7 µM, respectively.

With `CC(=O)C1=C(O)C2(O)C(=O)c3c(c(C)c4ccc(C)c(O)c4c3O)CC2C(N)C1=O` (stereo not given), the TGI in the test on CAKI-1 renal worked out at 7.99 µM; in the test on HS 578T breast, 9.48 µM; in the test with EKVX NSCLC, 12.2 µM; in the test with SNB-75 CNS, 16.7 µM; in the test with UACC-62 melanoma, 5.25 µM; in the test with CCRF-CEM leukemia, 18.6 µM. Moreover, the TGI was determined as 5.07 µM with HL-60(TB) leukemia, 12.3 µM in the test on HT29 colon, 13 µM in the test on IGROV1 ovarian and 13.7 µM with NCI/ADR-RES ovarian. Also, the GI50 is 1.99 µM in the test with HS 578T breast and 1.89 µM in the test on NCI/ADR-RES ovarian.

Consider `CN1CCN(CCCOc2ccc3ncnc(Nc4ccc(Oc5cccc(C(F)(F)F)c5)c(Cl)c4)c3c2)CC1`, for which the GI50 was 1.31 µM in the test with CAKI-1 renal; 1.67 µM in the test with HS 578T breast; 1.16 µM in the test on EKVX NSCLC; 1.15 µM in the test on SNB-75 CNS; 2.32 µM in the test on CCRF-CEM leukemia; 1.89 µM with HL-60(TB) leukemia. For the same molecule, the GI50 is 1.13 µM in the test on HT29 colon, 0.908 µM with IGROV1 ovarian and 2.4 µM with NCI/ADR-RES ovarian. Besides, the TGI amounted to 3.07 µM in the test on CAKI-1 renal; 4.22 µM in the test on HS 578T breast; 3.4 µM in the test on EKVX NSCLC; 3.13 µM in the test with SNB-75 CNS; 7.46 µM in the test with CCRF-CEM leukemia; 4.52 µM in the test with HL-60(TB) leukemia. Also, the TGI is 3.63 µM with HT29 colon, 2.43 µM with IGROV1 ovarian and 8.62 µM in the test with NCI/ADR-RES ovarian.

Regarding `N#CCc1[nH]nc2nc(SCc3ccccc3)nc(N3CCCCC3)c12`, the TGI was 34.6 µM with CAKI-1 renal; 39.2 µM in the test with HS 578T breast; 39.5 µM in the test with EKVX NSCLC; 33.7 µM in the test with SNB-75 CNS; 33.8 µM in the test with CCRF-CEM leukemia; 43.6 µM in the test with HL-60(TB) leukemia. Moreover, the TGI in the test with HT29 colon amounted to 41.4 µM; in the test with NCI/ADR-RES ovarian, 32.3 µM.

For the molecule `COc1ccc(/C=c2/[nH]c(=O)/c(=C\c3ccc(OCc4ccccc4)cn3)[nH]c2=O)cc1`, the TGI with CAKI-1 renal is > 100 µM; with HS 578T breast it was > 100 µM; in the test on EKVX NSCLC, > 100 µM; in the test on SNB-75 CNS it was 61 µM; in the test with UACC-62 melanoma it was > 100 µM; in the test on CCRF-CEM leukemia, > 100 µM. Moreover, the TGI with HL-60(TB) leukemia, in the test with HT29 colon and in the test with NCI/ADR-RES ovarian was > 100 µM throughout.

Consider `Cc1c(Cl)c(=O)oc2cc(OCC(=O)c3ccccc3)ccc12`, for which the TGI with CAKI-1 renal, in the test with HS 578T breast, with EKVX NSCLC, with UACC-62 melanoma, in the test on CCRF-CEM leukemia and in the test on HL-60(TB) leukemia was > 100 µM throughout. Besides, the TGI in the test with HT29 colon, in the test with IGROV1 ovarian and with NCI/ADR-RES ovarian was > 100 µM in each case.

Source of the values: PubChem BioAssay (NCI).
